# Measurements as given in patent publication US20220168296A1, “METHODS OF TREATING CANCER WITH FARNESYLTRANSFERASE INHIBITORS” (Kura Oncology, Inc., priority 2019, published 2022).
# Key:
# Format in all cases: in vivo, human
# [1] = system: Hodgkin Lymphoma (HL); assay: Phase II clinical study with tipifarnib in relapsed or refractory lymphoma patients: HL subjects; details: among 6 HL patients with pre-treatment tumor samples; 300 mg orally bid days 1-21 of 28 day cycles
# Method: A Phase II clinical study with tipifarnib was performed in relapsed or refractory non-Hodgkin's lymphoma patients (N=93), wherein the types of non-Hodgkin's lymphoma included Diffuse Large B Cell Lymphoma (DLBCL) and Mycosis Fungoides (MF). Eligible patients received 300 mg tipifarnib as a single agent orally, twice a day (bid) on days 1-21 of 28 day cycles. Courses were repeated every 28 days in the absence of disease progression or unacceptable toxicity. Primary objective of assessing objective tumor response, in terms of Objective Response Rate (ORR), was determined using the International Workshop Criteria (IWC). […]
# [2] = system: Mycosis Fungoides (MF); assay: Phase II clinical study with tipifarnib in relapsed or refractory non-Hodgkin's lymphoma patients: MF subjects
# Method: A Phase II clinical study with tipifarnib was performed in relapsed or refractory non-Hodgkin's lymphoma patients (N=93), wherein the types of non-Hodgkin's lymphoma included Diffuse Large B Cell Lymphoma (DLBCL) and Mycosis Fungoides (MF). Eligible patients received 300 mg tipifarnib as a single agent orally, twice a day (bid) on days 1-21 of 28 day cycles. Courses were repeated every 28 days in the absence of disease progression or unacceptable toxicity. Primary objective of assessing objective tumor response, in terms of Objective Response Rate (ORR), was determined using the International Workshop Criteria (IWC). […] CXCL12, CXCR4, CXCR7, and […]2, mRNA expression data were generated by RNASeq and expressed as RNA Seq RSEM.
# [3] = system: relapsed or refractory Diffuse Large B Cell Lymphoma (DLBCL); assay: Phase II clinical study with tipifarnib in relapsed or refractory non-Hodgkin's lymphoma patients: DLBCL subjects; design: key to Best Response: a partial response (PR); Stable disease (SD) can be defined as any response not meeting CR, PR, HI, or PD criteria; Progressive disease (PD) can be defined as either >50% increase in lymph node or circulating blast % from baseline, or new appearance of circulating blasts (on at least 2 consecutive occasions)
# Method: A Phase II clinical study with tipifarnib was performed in relapsed or refractory non-Hodgkin's lymphoma patients (N=93), wherein the types of non-Hodgkin's lymphoma included Diffuse Large B Cell Lymphoma (DLBCL) and Mycosis Fungoides (MF). Eligible patients received 300 mg tipifarnib as a single agent orally, twice a day (bid) on days 1-21 of 28 day cycles. Courses were repeated every 28 days in the absence of disease progression or unacceptable toxicity. Primary objective of assessing objective tumor response, in terms of Objective Response Rate (ORR), was determined using the International Workshop Criteria (IWC).
# Exclusion Criteria for this clinical study include: (a) pregnant women; (b) breastfeeding women; (c) men or women of childbearing potential or their sexual partners who are unwilling to employ adequate contraception (condoms, diaphragm, birth control pills, injections, intrauterine device [IUD], surgical sterilization, subcutaneous implants, or abstinence, etc.); (d) life-threatening illness (unrelated to tumor); (e) ongoing radiation therapy or radiation therapy ≤3 weeks prior to study registration unless the acute side effects associated with such therapy are resolved; (f) therapy with myelosuppressive chemotherapy, cytotoxic chemotherapy, or biologic therapy ≤3 weeks (6 weeks for nitrosourea or mitomycin C) or corticosteroids ≤2 weeks, prior to starting R11577; patients may be on corticosteroids or tapering off them up until the day they start R11577 as long as it is clear that they are not having a tumor response to the steroids or that the steroids would confuse the interpretation of response to R11577; patients may be receiving stable (not increased within the last month) chronic doses of corticosteroids with a maximum dose of 20 mg of prednisone per day if they are being given for disorders other than lymphoma such as rheumatoid arthritis, polymyalgia rheumatica, adrenal insufficiency, or intractable symptoms of lymphoma; (g) peripheral neuropathy ≥grade 3; (h) serious non-malignant disease such as active infection or other condition which in the opinion of the investigator would compromise other protocol objectives; (i) presence of central nervous system (CNS) lymphoma; (j) other active malignancies; (k) once a patient begins FTI (tipifarnib) treatment, the addition of other cancer treatment will confound the assessment of efficacy and therefore is not allowed; this restriction precludes the addition of cytotoxic, immunologic agents, radiotherapy, or an increase in corticosteroid dose while the patient is in the treatment phase of this protocol; (l) known to be human immunodeficiency virus (HIV) positive; HIV testing is not required but should be done if clinically indicated; HIV patients are excluded because of concerns regarding excess risk of complications of immunosuppressive therapy regimens; and (m) known allergy to imidazole drugs such as clotrimazole, ketoconazole, miconazole, econazole, fenticonazole, sulconazole, tioconazole, or terconazole.
# Pre-treatment tumor samples and best response data were obtained from 20 patients (N=20): 6 Diffuse Large B Cell Lymphoma (DLBCL), 6 Hodgkin Lymphoma (HL), 4 Follicular Lymphoma (FL), 1 Marginal Zone B Cell Lymphoma, 1 PTCL NOS, and 2 Mycosis Fungoides (MF). Within these 20 patients, the following objective responses were identified: 3 PRs and 1 SD were reported in DLBCL, 1PR in HL, and 2PRs in MF.
# CXCL12, CXCR4, CXCR7, and PRICLKE2, mRNA expression data were generated by RNASeq and expressed as RNA Seq RSEM.
# [4] = among 6 DLBCL patients with pre-treatment tumor samples, 300 mg orally bid days 1-21 of 28 day cycles
# [5] = high PRICKLE2 and CXCL12/CXCR4 ratio greater than about 1/10 (about 0.10), out of 6 subjects (FIG. 2B)
# [6] = low PRICKLE2 and lower CXCL12/CXCR4 ratio, cut-off about 1/10 (about 0.10), out of 6 subjects (FIG. 2B)
# [7] = low PRICKLE2 and lower CXCL12/CXCR4 ratio, cut-off about 3/20 (about 0.15), out of 6 subjects (FIG. 2B)
# [8] = low pre-treatment CXCL12 expression levels, out of 6 subjects (FIG. 1A)
# [9] = low pre-treatment PRICKLE2 expression levels, out of 6 subjects (FIG. 2A)
structure (smiles),measurement,setting,value
Cn1cncc1[C@@](N)(c1ccc(Cl)cc1)c1ccc2c(c1)c(-c1cccc(Cl)c1)cc(=O)n2C [tipifarnib],Number of PR (objective responses),[1],1
same,Number of PR responses,"[2]; MF patients having high pre-treatment CXCL12 expression levels, out of 2 subjects",2
same,Number of PR responses,"[2]; MF, low pre-treatment CXCL12 expression levels, out of 2 subjects",0
same,Number of PRs (objective responses),"[2]; among 2 MF patients with pre-treatment tumor samples, 300 mg orally bid days 1-21 of 28 day cycles",2
same,Number of PRs,"[2]; two MF subjects with CXCL12/CXCR4 expression ratio of 0.6 and 2.0, out of 2 subjects",2
same,Best Response,"[3]; DLBCL subject with pre-treatment tumor CXCL12/CXCR7 ratio 1.4, 300 mg orally bid days 1-21 of 28 day cycles",PD
same,Best Response,"[3]; DLBCL subject with pre-treatment tumor CXCL12/CXCR7 ratio 3.5, 300 mg orally bid days 1-21 of 28 day cycles",PD
same,Best Response,"[3]; DLBCL subject with pre-treatment tumor CXCL12/CXCR7 ratio 3.7, 300 mg orally bid days 1-21 of 28 day cycles",SD
same,Best Response,"[3]; DLBCL subject with pre-treatment tumor CXCL12/CXCR7 ratio 6.6, 300 mg orally bid days 1-21 of 28 day cycles",PR
same,Best Response,"[3]; DLBCL subject with pre-treatment tumor CXCL12/CXCR7 ratio 30.8, 300 mg orally bid days 1-21 of 28 day cycles",PR
same,Best Response,"[3]; DLBCL subject with pre-treatment tumor CXCL12/CXCR7 ratio 66.8, 300 mg orally bid days 1-21 of 28 day cycles",PR
same,Best Response,"[3]; Patient 35, DLBCL, pre-treatment tumor CXCL12/CXCR4 ratio 1.280, 300 mg orally bid days 1-21 of 28 day cycles",PR
same,Best Response,"[3]; Patient 38, DLBCL, pre-treatment tumor CXCL12/CXCR4 ratio 0.505, 300 mg orally bid days 1-21 of 28 day cycles",PR
same,Best Response,"[3]; Patient 39, DLBCL, pre-treatment tumor CXCL12/CXCR4 ratio 0.179, 300 mg orally bid days 1-21 of 28 day cycles",PR
same,Best Response,"[3]; Patient 42, DLBCL, pre-treatment tumor CXCL12/CXCR4 ratio 0.122, 300 mg orally bid days 1-21 of 28 day cycles",SD
same,Best Response,"[3]; Patient 43, DLBCL, pre-treatment tumor CXCL12/CXCR4 ratio 0.050, 300 mg orally bid days 1-21 of 28 day cycles",PD
same,Best Response,"[3]; Patient 44, DLBCL, pre-treatment tumor CXCL12/CXCR4 ratio 0.012, 300 mg orally bid days 1-21 of 28 day cycles",PD
same,Number of PRs (objective responses),[3]; [4],3
same,Number of SD (objective responses),[3]; [4],1
same,Number of PR responses,[3]; [5],3
same,Number of SD responses,[3]; [5],1
same,Number of PR responses,"[3]; high PRICKLE2 and CXCL12/CXCR4 ratio greater than about 3/20 (about 0.15), out of 6 subjects (FIG. 2B)",3
same,Number of PR responses,"[3]; high pre-treatment CXCL12 expression levels, out of 6 subjects (FIG. 1A)",3
same,Number of PR responses,"[3]; high pre-treatment PRICKLE2 expression levels, out of 6 subjects (FIG. 2A)",3
same,Number of PD responses,[3]; [6],2
same,Number of PR responses,[3]; [6],0
same,Number of SD responses,[3]; [6],0
same,Number of PD responses,[3]; [7],2
same,Number of PR responses,[3]; [7],0
same,Number of SD responses,[3]; [7],1
same,Number of PD responses,[3]; [8],2
same,Number of PR responses,[3]; [8],0
same,Number of SD responses,[3]; [8],1
same,Number of PD responses,[3]; [9],2
same,Number of PR responses,[3]; [9],0
same,Number of SD responses,[3]; [9],1
